Experimental data published in patent US5021569A, “4-azatricyclo[4.3.1.1(3,8)]undecylarylpiperazines with anxiolytic activity” (priority 1990, dated 1991).
Where a name gives a salt, the structure may show the parent alone. Read-outs that look alike come from different tables or passages of the source.

Tests used:
5-HT1A receptor = conditions: background literature; cited from earlier work
D2 receptor = molecular target: T1, D2 receptor (Rattus norvegicus, UniProt P61169); test: D2 receptor affinity, reduction of 3H-spiroperidol binding; conditions: read-out: Affinity for D2 Receptor Sites, % Inhibition at 1 μM
T1 construct: from tissue
T1 sequence (P61169 whole entry): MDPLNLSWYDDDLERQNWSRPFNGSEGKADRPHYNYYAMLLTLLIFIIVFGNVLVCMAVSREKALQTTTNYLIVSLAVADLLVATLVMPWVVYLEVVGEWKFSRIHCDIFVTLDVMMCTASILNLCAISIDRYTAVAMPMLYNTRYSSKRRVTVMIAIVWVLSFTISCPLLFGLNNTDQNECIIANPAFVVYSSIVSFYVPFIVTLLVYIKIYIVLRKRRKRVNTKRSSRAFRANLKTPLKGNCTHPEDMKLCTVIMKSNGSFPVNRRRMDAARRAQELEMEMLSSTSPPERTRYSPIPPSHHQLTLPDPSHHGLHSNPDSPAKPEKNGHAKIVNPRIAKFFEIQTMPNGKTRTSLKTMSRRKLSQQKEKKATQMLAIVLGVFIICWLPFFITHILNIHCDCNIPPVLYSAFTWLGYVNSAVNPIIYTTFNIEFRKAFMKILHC
Experimental: The percentage reduction of ^3 H-spiroperidol binding at 1 μM concentration of test compound is reported, infra.

[1] = molecular target: T2, 5-HT1A serotonin receptor subtype (Rattus norvegicus, UniProt P19327); test: 5-HT1A receptor binding, displacement of 3H-8-OH DPAT (procedure of Hall et al.); conditions: for inhibition at 0.1 µM: read-out: Affinity for 5-HT1A Receptor Sites, % Inhibition at 100 nM; for Ki: Ki calculated from IC50 values, read-out: Affinity for 5-HT1A Receptor Sites, Ki
T2 construct: from tissue
T2 sequence (P19327 1-422): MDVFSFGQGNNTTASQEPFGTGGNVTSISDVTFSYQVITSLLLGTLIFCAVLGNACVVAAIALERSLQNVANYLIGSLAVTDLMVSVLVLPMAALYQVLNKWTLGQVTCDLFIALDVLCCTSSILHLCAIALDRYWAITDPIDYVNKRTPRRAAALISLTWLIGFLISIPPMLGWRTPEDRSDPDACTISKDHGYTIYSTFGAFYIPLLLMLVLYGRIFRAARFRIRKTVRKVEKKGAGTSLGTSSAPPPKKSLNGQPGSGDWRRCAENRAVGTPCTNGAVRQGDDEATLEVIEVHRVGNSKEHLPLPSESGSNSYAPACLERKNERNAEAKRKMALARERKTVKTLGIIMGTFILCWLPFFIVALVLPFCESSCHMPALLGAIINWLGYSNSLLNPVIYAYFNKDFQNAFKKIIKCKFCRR
Excerpt: The serotoninergic properties of the compounds of this invention were established by the procedure of Hall et al., J. Neurochem.

[2] = background, U.S. Pat. No. 4,818,756; cited from earlier work
[3] = 1 μM test compound, 3H-spiroperidol
[4] = 100 nM test compound, 3H-8-OH DPAT

Question: With O=C1CC2(CCCC2)CC(=O)N1CCCCN1CCN(c2ncccn2)CC1 [Buspirone, 8-[4-[-4-(2-pyrimidinyl)-1-piperazinyl]butyl]-8-azaspiro[4.5]decane-7,9-dione] as the compound, how does the “binding at the 5-HT1A site (in words)” value (5-HT1A receptor) read?
Answer: The value was “demonstrate binding at the 5-HT1A site”.

Question: Which results are given for O=C(CCN1CCN(c2cccc(Cl)c2)CC1)N1CC2CC3CC(C2)CC1C3 [Example 1, 1-(4-Azatricyclo[4.3.1.1(3,8)]undec-4-yl)-3-[4-(3-chlorophenyl)-1-piperazinyl]-1-propanone]?
Answer: inhibition at 1 µM (D2 receptor; [3]): 42%; inhibition at 0.1 µM [1, 4]: 78%; Ki ([1]; 3H-8-OH DPAT): 30 nM

Question: With Clc1cccc(N2CCN(CCCN3CC4CC5CC(C4)CC3C5)CC2)c1 [Example 2, 4-[3-[4-(3-Chlorophenyl)-1-piperazinyl]propyl]-4-azatricyclo[4.3.1.1(3,8)]undecane Dihydrochloride One Third Hydrate] as the compound, how does the inhibition at 0.1 µM [1, 4] read?
Answer: Its inhibition at 0.1 µM is 47%.

Question: Which results are given for COc1ccccc1N1CCN(CCC(=O)N2CC3CC4CC(C3)CC2C4)CC1 [Example 3, 1-(4-Azatricyclo[4.3.1.1(3,8)]undec-4-yl)-3-[4-(2-methoxyphenyl)-1-piperazinyl]-1-propanone Dihydrochloride Hydrate]?
Answer: inhibition at 1 µM (D2 receptor): 71%; inhibition at 0.1 µM [1]: 92%

Question: With COc1ccccc1N1CCN(CCCN2CC3CC4CC(C3)CC2C4)CC1 [Example 4, 4-[3-[4-(2-Methoxyphenyl)-1-piperazinyl]propyl]-4-azatricyclo[4.3.1.1(3,8)]undecane Trihydrochloride One Quarter Hydrate] as the compound, how does the inhibition at 1 µM (D2 receptor; [3]) read?
Answer: The inhibition at 1 µM was 14%.

Question: What about the inhibition at 0.1 µM [1, 4] of the same compound?
Answer: Its inhibition at 0.1 µM is 72%.

Question: And the Ki ([1]; 3H-8-OH DPAT)?
Answer: Its Ki is 33 nM.

Question: With O=C(CCN1CCN(c2ncccn2)CC1)N1CC2CC3CC(C2)CC1C3 [Example 5, 1-(4-Azatricyclo[4.3.1.1(3,8)]undec-4-yl)-3-[4-(2-pyrimidinyl)-1-piperazinyl]-1-propanone] as the compound, how does the inhibition at 0.1 µM [1, 4] read?
Answer: Its inhibition at 0.1 µM is 46%.

Question: For O=C1c2ccccc2S(=O)(=O)N1CCCCN1CCN(c2ncccn2)CC1 [TVX Q 7821, 2-[4-[4-(2-pyrimidinyl)-1-piperazinyl]buyl]-1,2-benzisothiazol-3-(2H)one-1,1-dioxide hydrochloride], which “antidepressant activity (in words)” value [2] is on record?
Answer: The value was “found to possess antidepressant activity”.

Question: What about the “binding at the 5-HT1A site (in words)” value (5-HT1A receptor) of the same compound?
Answer: Its value is “demonstrate binding at the 5-HT1A site”.

Question: With CCCC(C)C1(CC)C(=O)NC(=O)NC1=O (centres unmarked) [pentobarbital] as the compound, how does the “binding at the 5-HT1A site (in words)” value (5-HT1A receptor) read?
Answer: Its value is “do not act via the 5-HT1A receptor”.
